Measurements: patent publication US4248879A, “Benzopyranotriazoles” (Beecham Group Limited, priority 1978, dated 1981)

Key:
rat PCA = experiment: Passive Cutaneous Anaphylaxis (PCA) in rats; assay type: in vivo, Male Wistar rats; conditions: S.C.
Method: Serum containing heat-labile homocytotropic antibody was raised in rats to crystallized ovalbumin XOA by the method of Mota (I. Mota, Immunology, 7, 681, (1964)) using Bordettela pertussis vaccine as adjuvant.
Passive cutaneous anaphylaxis (PCA) was carried out by a method based on that of Ovary and Bier, (A. Ovary and O. G. Bier, Proc. Soc. Exp. Bio. Med 81, 584, (1952)) as modified by Goose and Blair. (Immunology 16, 749 (1969)).
Male Wistar rats of 250-300 g were give 0.1 ml of each of six twofold serial dilutions of pooled antiserum in 0.9% saline injected intradermally into separate sites in their shaved backs. Later (72 hours) the animals were challenged by intravenous injection of 0.3 ml of a 1% solution of ovalbumin in an isotonic solution of saline buffered with 0.05 M, pH 7.2, Sorenson Buffer (PBS), mixed with 0.2 ml of a 5% solution of Pontamine Sky Blue (6BX C.I. 24410, Raymond A. Lamb, London) in isotonic saline. The rats were killed after 20 minutes and the diameter of the blue wheals at the antibody injection sites was measured on the outer surface of the skin. The starting dilution of the serum was adjusted so that there was no response, after challenge, at the injection site of the highest dilution and a maximum response at the lowest dilutions. Typically six twofold serial dilutions of the serum from 1/4 to 1/128 were used.
Compounds were tested for their ability to reduce the diameter of the wheals at those intradermal sites which in control animals gave less than maximum response. Each dose of the compound was administered to six rats at a measured time prior to intravenous challenge with ovalbumin. Control groups of six rats were given the same volume (0.2 ml: 100 g^-1) of carrier fluid at the same time prior to the challenge.
The results were calculated as follows: % inhibition of PCA=100 (1-a/b) where a=the sum of the diameters of the wheals produced in the test animal at the sites of antibody dilutions as used in control groups and b=the mean sum of the diameters of the wheals produced in the control group of animals at those antibody sites where at least five out of six of the animals gave less than maximum response. A typical variation in the control group of animals was SEM±6%.

LD50 (toxicity) in mice = conditions: mouse, in vivo
Method: The LD50 of the compound of Example 6 (d) is between 20 to 80 mg/kg i.v. and between 125 to 500 mg/kg per os, in mice.

[1] = PBS with NaHCO3, 10 mins before antigen challenge, 10 mg/kg
[2] = PBS with NaHCO3, 30 mins before antigen challenge, 10 mg/kg
[3] = PBS with NaHCO3, 10 mins before antigen challenge, 5 mg/kg
[4] = PBS with NaHCO3, 30 mins before antigen challenge, 5 mg/kg
[5] = PBS with NaHCO3, 10 mins before antigen challenge, 20 mg/kg
[6] = PBS with NaHCO3, 30 mins before antigen challenge, 20 mg/kg

Cc1ccc2oc3nn[nH]c3c(=O)c2c1 [Example 3, 7-Methyl-9-oxo-1H,9H-benzopyrano[2,3]-v-triazole]
% Inhibitions of rat PCA (rat PCA; [1]): 78% | % Inhibitions of rat PCA (rat PCA; [2]): 41%

Cc1cc(C)c2c(=O)c3[nH]nnc3oc2c1C [Example 7, 9-oxo-5,6,8-Trimethyl-1H,9H-benzopyrano[2,3-d]-v-triazole]
% Inhibitions of rat PCA (rat PCA; [1]): 40% | % Inhibitions of rat PCA (rat PCA; [2]): 18%

Cc1cc2oc3nn[nH]c3c(=O)c2cc1C [Example 6d]
LD50 (LD50 (toxicity) in mice; iv): 20 to 80 mg/kg | LD50 (LD50 (toxicity) in mice; po, per os): 125 to 500 mg/kg | % Inhibitions of rat PCA (rat PCA; [3]): 72% | % Inhibitions of rat PCA (rat PCA; [4]): 22%

Cc1ccc2c(=O)c3[nH]nnc3oc2c1C [Example 5, 5,6-Dimethyl-9-oxo-1H,9H-benzopyrano[2,3-d]-v-triazole]
% Inhibitions of rat PCA (rat PCA; [5]): 64% | % Inhibitions of rat PCA (rat PCA; [6]): 14%

COc1ccc2oc3nn[nH]c3c(=O)c2c1 [Example 4, 7-Methoxy-9-oxo-1H,9H-benzopyrano[2,3-d]-v-triazole]
% Inhibitions of rat PCA (rat PCA; [5]): 66% | % Inhibitions of rat PCA (rat PCA; [6]): 35%

Cc1ccc2oc3nn[nH]c3c(=O)c2c1C [Example 6e, 7,8-dimethyl-1H,9H-benzopyrano[2,3-d]-v-triazole]
% Inhibitions of rat PCA (rat PCA; [3]): 86% | % Inhibitions of rat PCA (rat PCA; [4]): 45%

O=c1c2ccccc2oc2nn[nH]c12 [Example 1, 9-Oxo-1H,9H-benzopyrano[2,3-d]-v-triazole]
% Inhibitions of rat PCA (rat PCA; [1]): 83% | % Inhibitions of rat PCA (rat PCA; [2]): 29%
